The results in this text go back to patent US10369133B2, “Immunosuppressive compounds and therapeutics” (UNIVERSITY OF TENNESSEE RESEARCH FOUNDATION, priority 2013, dated 2019).

Series [1] concerns human PBMCs in NSG mice. The experiment in a line: Immunosuppressive effect in humanized NSG mice. The format is in vivo, mouse. Conditions: for amount of human CD3+ T cells in the mouse spleen / serum human IgG level: 50 mg/kg intraperitoneally, consecutive 7 shots, compared with saline. The protocol:
Human PBMCs (5×10^6/mouse) were injected intraperitoneally into NSG mice to introduce human immunity. Sections were stained to indicate human CD3+ T cells (red) and counterstained with DAPI (blue). […] Results are presented as the mean±S.D., n=5.
Human PBMCs were isolated from buffy coats by gradient centrifugation using Ficoll Paque. The T cells and B cells of PBMCs were stained with FITC conjugated CD3 antibody and APC conjugated CD19 antibody, respectively, and characterized using flow cytometry. The PBMCs were infused into diabetic NSG mice at the concentration of 5×10^6/mouse to establish human immunity. The settlement of T cells in the spleen was assessed by immunofluorescence staining. Briefly, spleen were isolated, washed with PBS, fixed in 4% paraformaldehyde overnight, and embedded in optimal cutting temperature compound. Frozen sections of 5 μm thickness were cut. The slides were stained with rabbit anti-human CD3 primary antibody (1:200) at 4° C. overnight and Alexa Fluor 568 conjugated goat anti-rabbit secondary antibody (1:500) at room temperature for 1 h. The function of B cells was assessed by measuring human IgG concentration in the mouse blood.
To test the immunosuppressive effect of JP-3-110 in vivo, a humanized mouse model was used. Briefly, human PBMCs (5×10^6/mouse) were adoptively transferred into immunodeficient NSG mice to build human immunity. The human IgG level in the serum and human CD3+ T cell staining in the spleen was used to confirm the existence of human immunity (FIG. 8B). JP-3-110 and MPA was administrated intraperitoneally at 50 mg/kg for consecutive 7 shots.

For series [2], the system named is human islets. The experiment in a line: Annexin V-FITC flow cytometry of apoptotic cells in human islets. The format is cell-based. Conditions: 20 μM, 5 days coculture. As for the experimental part: (§1) Results are presented as the mean±S.D., n=3. […] Apoptotic cells were stained in dark (arrows). […] Islet was collected and dispersed with 0.25% Trypsin/EDTA into single cell suspension. P3 indicated the percentage of apoptotic cells. All experiments were performed in triplicates. Results are presented as the mean±SD. *p<0.05 as determined by an unpaired Student's t-test, n=6.
(§2) The apoptosis of INS-1E cells was analyzed using terminal deoxynucleotidyl transferase dUTP nick end labeling (TUNEL). Briefly, following JP-3-110 treatment for 48 h and cytokine cocktail treatment for additional 48 h, INS-1E cells were characterized by the DeadEnd™ Colorimetric TUNEL system (Promega, Madison, Wis., USA), in which fragmented DNA from apoptotic cells was labeled with biotinylated nucleotide and detected using hydrogen peroxide and diaminobenzidine. For human islets, following treatment with JP-3-110 and cytokines, human islets were digested with 0.25% trypsin/EDTA into a single-cell suspension, stained with the Annexin V-FITC Apoptosis Detection Kit (Abcam, Cambridge, Mass.) and analyzed with flow cytometry. Annexin V binds to phosphatidylserine on the cell surface, which is a feature found in apoptotic cells. Fluorescent intensity was analyzed using CellQuest software (BD Bioscience, Franklin Lakes, N.J.). […]
(§3) We then determined the conjugation with TNP can reduce the pro-apoptotic effect of MPA. […]
On the technique in general: In flow cytometry, cells or beads pass a laser one at a time.

Series [3] has as its system INS-1E cells. The experiment in a line: Caspase 3 activity in INS-1E cells (Caspase-Glo 3). Type of series: cell-based. Conditions: 20 μM (each), 2 days. As for the experimental part: as §1
A cytokine cocktail (5 ng/ml TNFα and 5 ng/ml IL-1β) was used to mimic the in vivo challenge to the INS-1E cells and human islets by the inflammatory cytokines. Caspase-Glo 3 assay kits were used to analyze caspase 3 as per the manufacturer's protocol (Promega, Madison, Wis.). This assay kit provides a proilluminescent caspase substrate, DEVD, that, when cleaved by caspases, will release luciferin to quantitatively determine caspase concentration. […] The contents were then transferred into culture tubes, and luminescence was determined using a luminometer (Berthold, Germany).
We then determined the conjugation with TNP can reduce the pro-apoptotic effect of MPA. […] We first measured the caspase 3 activities of insulin-producing INS-1E cells under the stimulation of MPA alone, or MPA with free TNP, or JP-3-110 (MPA conjugated with TNP). […]

Series [4] has as its system PHA-stimulated T cells. The experiment in a line: T cell activation markers in medium of PHA-stimulated T cells by ELISA. The format is cell-based, human. Conditions: 5 μM; for level of IFNγ / level of TNFα: medium of T cells following PHA stimulation; for level of IL-2 / level of IL-2 receptors: medium of T cells, 48 h following PHA stimulation. The protocol:
Briefly, human peripheral blood mononuclear cells PBMCs were isolated from human buffy coat using Ficoll-Paque. T cells ([…]) were isolated from PBMCs using dynabeads for human CD3+ T cells and subjected to PHA (1 μg/mL) stimulation for 24 h alone or with JP-3-110 (5 μM) and MPA (5 μM) for additional 48 h. The PHA-stimulated proliferation of T cells is characterized by a quick drop in the early stage (24 h) and a following fast-proliferative stage. FIGS. 3B and 3C show charts depicting the levels of IL-2, IL-2 receptor, TNFα and IFNγ in the media of T cells at 48 h following PHA stimulation. IL-2 and IL-2 receptor were transient expressed markers for early stage T cell activation while TNFα and IFNγ were stably expressed markers for later-stage T cell activation. Results are presented as the mean±S.D., n=6.
PBMCs were isolated using Ficoll Paque. T cells were isolated from PBMCs using Dynabeads for. T cells were stimulated with PHA (1 μg/ml) for 24 h alone or in the presence of TNP (5 μM) or JP-3-110 (5 μM) for additional 4 days. The total number of PBMCs was measured using T4 Automatic Cell Counter (Nexcelom, Lawrence, Mass.). The extent of T cell activation was determined by measuring the level of IL-2, IL-2sRa, TNFα and IFN-γ in the medium using ELISA at indicated time.
Mixed lymphocytes reaction was used to determine the immunosuppressive effects of MPA and JP-3-110. T cells were purified using dynabeads from peripheral blood mononuclear cells (PBMCs), which were initially isolated from human buffy coat (FIG. 8A). […] The levels of IL-2, IL-2sRa, TNFα and IFNγ were detected by ELISA to study the effects of JP-3-110 and MPA on T cell activation. IL-2 and IL-2R typically peaked at the first 48 h after PHA stimulation as markers for the early stage T cell activation, while TNFα and IFNγ were constitutively expressed by PHA-stimulated T cells as later-stage markers for T cell activation. […] However, the results might be due to an overlap between the immunosuppressive pathway and the anti-inflammatory pathway of JP-3-110 and MPA.
For orientation: ELISA stands for enzyme-linked immunosorbent assay.

Series [5] deals with INS-1E cells. Put plainly: TUNEL assay of INS-1E cells. Conditions: 20 μM. The format is cell-based. As for the experimental part:
as §1, §2, §3

Turning to `COc1c(C)c2c(c(O)c1C/C=C(\C)CCC(=O)O)C(=O)OC2` [MPA, mycophenolic acid, reference compound], in series [1], the “amount of human CD3+ T cells in the mouse spleen” value is recorded as “significantly reduced” and the “serum human IgG level” value was “significantly reduced”. For the same molecule, in series [1] (humanized NSG mice, 50 mg/kg each), the “immunosuppressive effect, MPA compared with JP-3-110” value is recorded as “slightly better immunosuppressive effect than JP-3-110”. Besides, in series [2], the “apoptotic cells in human islets (annexin V)” value was “induced substantial apoptotic cell death”. Besides, in series [3], the “caspase 3 activity” value is “elevation of caspase 3 activity”. In series [4], the “level of IFNγ” value is given as “moderate inhibition”, the “level of TNFα” value is recorded as “moderate inhibition”, the “level of IL-2” value is recorded as “did not have any effect” and the “level of IL-2 receptors” value was “did not have any effect”. Further, in series [5], the “apoptotic cell death (TUNEL)” value is “apoptotic cell death”.

Turning to `CCCCNC(=O)[C@]1(O)C[C@@H](O)[C@@H](O)[C@H](OC(=O)CC/C(C)=C/Cc2c(OC)c(C)c3c(c2OC(C)=O)C(=O)OC3)C1` [JP-3-110, (1R,2R,3R,5S)-5-(butylcarbamoyl)-2,3,5-trihydroxycyclohexyl (E)-6-(4-acetoxy-6-methoxy-7-methyl-3-oxo-1,3-dihydroisobenzofuran-5-yl)-4-methylhex-4-enoate], in series [1], the “amount of human CD3+ T cells in the mouse spleen” value is “significantly reduced” and the “serum human IgG level” value is on record as “significantly reduced”. In addition, in series [2], the “apoptotic cells in human islets (annexin V)” value is listed as “significantly reduced the percentage of apoptotic cells”. For the same molecule, in series [3], the “caspase 3 activity” value was “effectively reversed the elevation of caspase 3 activity”. In series [4], the “level of IFNγ” value was “moderate inhibition”, the “level of TNFα” value is “moderate inhibition”, the “level of IL-2” value is “did not have any effect” and the “level of IL-2 receptors” value is reported as “did not have any effect”. Moreover, in series [5], the “apoptotic cell death (TUNEL)” value was “effectively reversed”.
